# Key:
# Format in all cases: physicochemical
# [1] = Solubility test of paliperidone and its salts in water (100 mg of sample); settings: 100 mg of sample used
# Protocol: (§1) The solubility data of paliperidone and solid state forms of paliperidone salts is furnished in the below table. The 100 mg of sample was used for solubility test.
# [2] = Solubility test of paliperidone and its salts in methanol (100 mg of sample); settings: 100 mg of sample used
# Protocol: as §1
# [3] = Stability of the solid state form (as stated, no test data); settings: room temperature, enhanced temperature, relative high humidities, aqueous media
# Excerpt: In one embodiment, the process disclosed herein provides stable solid state forms of paliperidone salts. The term “stable solid state form” refers to stability of the solid state form under the standard temperature and humidity conditions of testing of pharmaceutical products, wherein the stability is indicated by preservation of the original polymorphic form.
Solubility Water [1],Solubility Methanol [2],SMILES,Stability of solid state form [3]
Insoluble,Insoluble,"Cc1nc2n(c(=O)c1CCN1CCC(c3noc4cc(F)ccc34)CC1)CCCC2O (racemic) [Paliperidone, (±)-3-[2-[4-(6-fluoro-1,2-benzisoxazol-3-yl)-1-piperidinyl]ethyl]-6,7,8,9-tetrahydro-9-hydroxy-2-methyl-4H-pyrido[1,2-a]pyrimidin-4-one]",–
–,Insoluble,Cc1nc2n(c(=O)c1CCN1CCC(c3noc4cc(F)ccc34)CC1)CCCC2O.O=C(O)/C=C/C(=O)O (stereo not shown),"stable at room temperature, enhanced temperature, at relative high humidities, and in aqueous media"
